Reference: ChEMBL document CHEMBL1909046, “DrugMatrix in vitro pharmacology data”

Experiments:
Melanocortin receptor 3 = Melanocortin receptor 3 (Homo sapiens, UniProt P41968); type: cell membranes, Membrane; conditions: hek293; note: in other assays of this panel Not Active means under 50% inhibition at 10 µM
Melanocortin receptor 4 = Melanocortin receptor 4 (Homo sapiens, UniProt P32245); type: cell membranes, Membrane; conditions: hek293; note: in other assays of this panel Not Active means under 50% inhibition at 10 µM
Chain of Melanocortin receptor 4 (P32245 whole entry): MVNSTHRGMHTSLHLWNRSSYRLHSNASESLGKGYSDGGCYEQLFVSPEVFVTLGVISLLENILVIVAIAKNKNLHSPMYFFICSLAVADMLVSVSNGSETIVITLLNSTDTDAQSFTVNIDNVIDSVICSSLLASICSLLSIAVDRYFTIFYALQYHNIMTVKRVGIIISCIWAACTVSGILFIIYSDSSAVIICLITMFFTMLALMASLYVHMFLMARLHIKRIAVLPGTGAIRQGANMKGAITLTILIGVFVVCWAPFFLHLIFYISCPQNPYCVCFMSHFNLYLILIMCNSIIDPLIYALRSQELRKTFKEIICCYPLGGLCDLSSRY

Histamine H2 receptor = Histamine H2 receptor (Homo sapiens, UniProt P25021); type: cell membranes, CHO-K1, Membrane; note: in other assays of this panel Not Active means under 50% inhibition at 10 µM
Chain of Histamine H2 receptor (P25021 whole entry): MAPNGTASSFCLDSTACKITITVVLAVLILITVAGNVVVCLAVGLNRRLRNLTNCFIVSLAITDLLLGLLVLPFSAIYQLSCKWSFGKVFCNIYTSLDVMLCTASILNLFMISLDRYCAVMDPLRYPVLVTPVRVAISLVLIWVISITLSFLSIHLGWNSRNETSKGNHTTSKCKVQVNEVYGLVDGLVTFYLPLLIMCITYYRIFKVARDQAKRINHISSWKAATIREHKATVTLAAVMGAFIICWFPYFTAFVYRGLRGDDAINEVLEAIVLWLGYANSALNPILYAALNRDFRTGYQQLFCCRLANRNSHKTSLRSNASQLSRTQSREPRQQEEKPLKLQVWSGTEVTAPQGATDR

[1] = DRUGMATRIX: Potassium Channel [KATP] radioligand binding (ligand: [3H] Glyburide); type: cell membranes, Membrane; conditions: hit-t15; Not Active = under 50% inhibition at 10 µM
[2] = biological target: Vascular endothelial growth factor receptor 1 (Homo sapiens, UniProt P17948); type: cell-based; conditions: huvec; note: in other assays of this panel Not Active means under 50% inhibition at 10 µM
Chain of Vascular endothelial growth factor receptor 1 (P17948 whole entry): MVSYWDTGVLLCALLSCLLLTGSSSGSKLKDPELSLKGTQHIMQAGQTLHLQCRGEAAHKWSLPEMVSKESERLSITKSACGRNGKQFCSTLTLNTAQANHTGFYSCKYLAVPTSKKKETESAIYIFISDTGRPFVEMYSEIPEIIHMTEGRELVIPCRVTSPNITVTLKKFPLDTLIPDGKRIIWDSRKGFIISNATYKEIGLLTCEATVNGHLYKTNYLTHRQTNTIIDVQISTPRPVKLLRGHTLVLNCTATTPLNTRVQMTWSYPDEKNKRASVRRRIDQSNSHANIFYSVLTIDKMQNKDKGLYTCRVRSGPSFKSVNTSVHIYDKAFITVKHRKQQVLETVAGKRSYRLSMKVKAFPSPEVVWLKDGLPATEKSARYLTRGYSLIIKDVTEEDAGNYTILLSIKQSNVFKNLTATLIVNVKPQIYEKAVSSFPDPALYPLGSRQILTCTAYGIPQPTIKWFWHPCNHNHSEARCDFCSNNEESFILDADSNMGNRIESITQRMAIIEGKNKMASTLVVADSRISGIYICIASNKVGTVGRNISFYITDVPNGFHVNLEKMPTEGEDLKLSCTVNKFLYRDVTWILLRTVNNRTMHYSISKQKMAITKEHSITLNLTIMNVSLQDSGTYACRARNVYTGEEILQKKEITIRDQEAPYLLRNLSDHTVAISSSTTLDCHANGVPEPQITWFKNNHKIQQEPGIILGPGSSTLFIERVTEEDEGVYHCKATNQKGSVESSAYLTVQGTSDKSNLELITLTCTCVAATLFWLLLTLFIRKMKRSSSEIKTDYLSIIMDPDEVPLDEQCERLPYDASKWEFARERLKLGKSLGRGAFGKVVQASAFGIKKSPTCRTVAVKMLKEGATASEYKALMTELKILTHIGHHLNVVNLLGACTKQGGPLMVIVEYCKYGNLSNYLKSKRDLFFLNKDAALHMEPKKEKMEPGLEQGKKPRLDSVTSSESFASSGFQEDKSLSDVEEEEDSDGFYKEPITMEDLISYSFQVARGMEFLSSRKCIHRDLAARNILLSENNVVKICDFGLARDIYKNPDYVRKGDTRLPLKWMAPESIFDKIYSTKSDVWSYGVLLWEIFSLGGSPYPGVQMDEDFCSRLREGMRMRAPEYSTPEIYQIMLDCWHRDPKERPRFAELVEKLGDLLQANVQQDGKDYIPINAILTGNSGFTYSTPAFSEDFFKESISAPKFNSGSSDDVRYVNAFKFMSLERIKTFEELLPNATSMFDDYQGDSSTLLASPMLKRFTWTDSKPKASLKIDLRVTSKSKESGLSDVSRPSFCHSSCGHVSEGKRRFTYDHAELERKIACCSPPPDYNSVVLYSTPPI

Endothelin-1 receptor = biological target: T1, Endothelin-1 receptor (Homo sapiens, UniProt P25101); type: cell membranes, Membrane; conditions: cho-k1; note: in other assays of this panel Not Active means under 50% inhibition at 10 µM
T1 sequence (P25101 whole entry): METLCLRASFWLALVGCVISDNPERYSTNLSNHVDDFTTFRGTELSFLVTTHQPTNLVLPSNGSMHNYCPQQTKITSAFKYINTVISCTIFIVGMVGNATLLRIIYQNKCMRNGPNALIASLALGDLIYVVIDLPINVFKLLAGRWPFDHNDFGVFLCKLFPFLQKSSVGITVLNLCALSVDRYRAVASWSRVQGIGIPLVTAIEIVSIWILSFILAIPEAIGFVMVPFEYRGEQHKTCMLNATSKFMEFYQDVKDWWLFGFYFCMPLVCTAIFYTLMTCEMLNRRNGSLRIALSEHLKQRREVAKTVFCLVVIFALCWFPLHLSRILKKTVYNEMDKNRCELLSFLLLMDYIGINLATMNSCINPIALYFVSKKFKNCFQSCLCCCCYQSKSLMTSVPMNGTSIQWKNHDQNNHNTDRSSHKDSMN

Chain of Melanocortin receptor 3 (P41968 whole entry): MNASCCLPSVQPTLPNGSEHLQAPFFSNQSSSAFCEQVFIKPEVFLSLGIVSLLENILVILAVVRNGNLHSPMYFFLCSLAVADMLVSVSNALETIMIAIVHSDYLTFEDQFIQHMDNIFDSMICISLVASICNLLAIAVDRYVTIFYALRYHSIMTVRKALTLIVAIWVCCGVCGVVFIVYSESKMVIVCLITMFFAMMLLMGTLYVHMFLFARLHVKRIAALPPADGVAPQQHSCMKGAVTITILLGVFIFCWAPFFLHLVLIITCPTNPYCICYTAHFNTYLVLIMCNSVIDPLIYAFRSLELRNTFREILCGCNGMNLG

Compound: C[C@@H]1O[C@@H](O[C@H]2C[C@@H](O)[C@]3(CO)[C@H]4[C@H](O)C[C@]5(C)[C@@H](C6=CC(=O)OC6)CC[C@]5(O)[C@@H]4CC[C@]3(O)C2)[C@H](O)[C@H](O)[C@H]1O [OUABAIN]
- IC50 (Melanocortin receptor 3): Not Active
- IC50 (Melanocortin receptor 4): Not Active
- IC50 (Histamine H2 receptor; cho-k1): Not Active
- IC50 [1]: Not Active
- Ki [1]: Not Active
- IC50 [2]: Not Active
- IC50 (Endothelin-1 receptor): Not Active

Compound: NC(=O)N1c2ccccc2CC(=O)c2ccccc21 [OXCARBAZEPINE]
- IC50 (Melanocortin receptor 3): Not Active
- IC50 (Melanocortin receptor 4): Not Active
- IC50 (Histamine H2 receptor; cho-k1): Not Active
- IC50 [1]: Not Active
- Ki [1]: Not Active
- IC50 [2]: Not Active
- IC50 (Endothelin-1 receptor): Not Active

Compound: COc1ccnc(C[S+]([O-])c2nc3ccc(OC(F)F)cc3[nH]2)c1OC (centres undefined) [PANTOPRAZOLE]
- IC50 (Melanocortin receptor 3): Not Active
- IC50 (Melanocortin receptor 4): Not Active
- IC50 (Histamine H2 receptor; cho-k1): Not Active
- IC50 [1]: Not Active
- Ki [1]: Not Active
- IC50 [2]: Not Active
- IC50 (Endothelin-1 receptor): Not Active

Compound: N=C(N)c1ccc(OCCCCCOc2ccc(C(=N)N)cc2)cc1 [PENTAMIDINE]
- IC50 (Melanocortin receptor 3): Not Active
- IC50 (Melanocortin receptor 4): Not Active
- IC50 (Histamine H2 receptor; cho-k1): Not Active
- IC50 [1]: Not Active
- Ki [1]: Not Active
- IC50 [2]: Not Active
- IC50 (Endothelin-1 receptor): Not Active

Compound: NNCCc1ccccc1 [PHENELZINE]
- IC50 (Melanocortin receptor 3): Not Active
- IC50 (Melanocortin receptor 4): Not Active
- IC50 (Histamine H2 receptor; cho-k1): Not Active
- IC50 [1]: Not Active
- Ki [1]: Not Active
- IC50 [2]: Not Active
- IC50 (Endothelin-1 receptor): Not Active

Compound: CCc1ccc(CCOc2ccc(CC3SC(=O)NC3=O)cc2)nc1 (centres undefined) [PIOGLITAZONE]
- IC50 (Melanocortin receptor 3): Not Active
- IC50 (Melanocortin receptor 4): Not Active
- IC50 (Histamine H2 receptor; cho-k1): Not Active
- IC50 [1]: Not Active
- Ki [1]: Not Active
- IC50 [2]: Not Active
- IC50 (Endothelin-1 receptor): Not Active

Compound: CCCNC(C)C(=O)Nc1ccccc1C (centres undefined) [PRILOCAINE]
- IC50 (Melanocortin receptor 3): Not Active
- IC50 (Melanocortin receptor 4): Not Active
- IC50 (Histamine H2 receptor; cho-k1): Not Active
- IC50 [1]: Not Active
- Ki [1]: Not Active
- IC50 [2]: Not Active
- IC50 (Endothelin-1 receptor): Not Active

Compound: CCN(CC)CCNC(=O)c1ccc(N)cc1 [PROCAINAMIDE]
- IC50 (Melanocortin receptor 3): Not Active
- IC50 (Melanocortin receptor 4): Not Active
- IC50 (Histamine H2 receptor; cho-k1): Not Active
- IC50 [1]: Not Active
- Ki [1]: Not Active
- IC50 [2]: Not Active
- IC50 (Endothelin-1 receptor): Not Active

Compound: CCN(CC)CCCC(C)Nc1c2ccc(Cl)cc2nc2ccc(OC)cc12 (centres undefined) [QUINACRINE]
- IC50 (Melanocortin receptor 3): Not Active
- IC50 (Melanocortin receptor 4): Not Active
- IC50 (Histamine H2 receptor; read-out: IC50): 3540 nM
- Ki (Histamine H2 receptor; read-out: Ki): 3480 nM
- IC50 [1]: Not Active
- Ki [1]: Not Active
- IC50 [2]: Not Active
- IC50 (Endothelin-1 receptor): Not Active

Compound: C[C@]12C=CC(=O)C=C1CC[C@H]1[C@@H]3C[C@@H](O)[C@](O)(C(=O)CO)[C@@]3(C)C[C@H](O)[C@@]12F [TRIAMCINOLONE]
- IC50 (Melanocortin receptor 3): Not Active
- IC50 (Melanocortin receptor 4): Not Active
- IC50 (Histamine H2 receptor; cho-k1): Not Active
- IC50 [1]: Not Active
- Ki [1]: Not Active
- IC50 [2]: Not Active
- IC50 (Endothelin-1 receptor): Not Active

Compound: CC[C@]1(O)C[C@@H]2CN(CCc3c([nH]c4ccccc34)[C@@](C(=O)OC)(c3cc4c(cc3OC)N(C)[C@H]3[C@@](O)(C(N)=O)[C@H](O)[C@]5(CC)C=CCN6CC[C@]43[C@@H]65)C2)C1 [VINDESINE]
- IC50 (Melanocortin receptor 3): Not Active
- IC50 (Melanocortin receptor 4): Not Active
- IC50 (Histamine H2 receptor; cho-k1): Not Active
- IC50 [1]: Not Active
- Ki [1]: Not Active
- IC50 [2]: Not Active
- IC50 (Endothelin-1 receptor): Not Active

Compound: CCN(C(C)=O)c1cccc(-c2ccnc3c(C#N)cnn23)c1 [ZALEPLON]
- IC50 (Melanocortin receptor 3): Not Active
- IC50 (Melanocortin receptor 4): Not Active
- IC50 (Histamine H2 receptor; cho-k1): Not Active
- IC50 [1]: Not Active
- Ki [1]: Not Active
- IC50 [2]: Not Active
- IC50 (Endothelin-1 receptor): Not Active

Compound: COBALTOUS CHLORIDE
- IC50 (Melanocortin receptor 3): Not Active
- Ki (Melanocortin receptor 3): Not Active
- IC50 (Melanocortin receptor 4): Not Active
- Ki (Melanocortin receptor 4): Not Active
- IC50 (Histamine H2 receptor; cho-k1): Not Active
- Ki (Histamine H2 receptor; cho-k1): Not Active
- IC50 [1]: Not Active
- Ki [1]: Not Active
- IC50 [2]: Not Active
- Ki [2]: Not Active
- IC50 (Endothelin-1 receptor): Not Active
- Ki (Endothelin-1 receptor): Not Active

Compound: COLISTIN
- IC50 (Melanocortin receptor 3; read-out: IC50): 193 nM
- Ki (Melanocortin receptor 3; read-out: Ki): 168 nM
- IC50 (Melanocortin receptor 4; read-out: IC50): 841 nM
- Ki (Melanocortin receptor 4; read-out: Ki): 809 nM
- IC50 (Histamine H2 receptor; cho-k1): Not Active
- Ki (Histamine H2 receptor; cho-k1): Not Active
- IC50 [1]: Not Active
- Ki [1]: Not Active
- IC50 [2]: Not Active
- Ki [2]: Not Active
- IC50 (Endothelin-1 receptor): Not Active
- Ki (Endothelin-1 receptor): Not Active
